Earlier results, collected in publication PMC10671431, “New Derivatives of N-Hydroxybutanamide: Preparation, MMP Inhibition, Cytotoxicity, and Antitumor Activity” (International Journal of Molecular Sciences, 2023).
Read-outs that look alike come from different tables or passages of the source.

Tests used:
[1] = test system: pancreatic carcinoma cells MiaPaCa2; design: method as in PMID 24022491; settings: 5 μM, 24 h of exposure; cited from earlier work
[2] = test system: pancreatic adenocarcinoma HPAC cells; design: method as in PMID 9224409; settings: 4000 ng/mL (8.37 μM), 24 h of exposure; cited from earlier work
[3] = test system: rat prostate cells derived from R3327-MatLyLu Dunning tumor; design: method as in PMID 10754522; settings: 4000 ng/mL (8.37 μM), 48 h of exposure; cited from earlier work
B16-BL6 melanoma = test system: B16-BL6 melanoma; design: method as in PMID 8050828; settings: mice with B16-BL6 melanoma; cited from earlier work
human glioma U-251 cells = test system: human glioma U-251 cells; design: method as in PMID 10048980; settings: 10 μM, 96 h of exposure; cited from earlier work
[4] = test system: pancreatic adenocarcinoma cells Capan1; design: method as in PMID 10767785; settings: 72 h of exposure, cited from earlier work
[5] = test system: pancreatic adenocarcinoma cells AsPC1; design: method as in PMID 10767785; settings: 72 h of exposure, cited from earlier work
[6] = test system: pancreatic carcinoma cells CD18; design: method as in PMID 24022491; settings: 5 μM, 24 h of exposure; cited from earlier work
[7] = test system: Shionogi hormone-responsive breast carcinoma cells; design: method as in PMID 8347186; settings: 156 μg/mL (326.61 μM), 96 h of exposure; cited from earlier work
[8] = test system: WM266-4 melanoma cells in nude mice; design: method as in PMID 27687955; settings: cited from earlier work
[9] = test system: human MV522 lung cancer cells in nude mice; design: method as in PMID 10430098; settings: cited from earlier work
[10] = test system: human malignant glioma cells U-87; design: method as in PMID 10213221; settings: cited from earlier work
Lewis lung carcinoma = test system: Lewis lung carcinoma; design: method as in PMID 9247252; settings: cited from earlier work
[11] = test system: hormone-sensitive prostate cancer G subline of Dunning tumor; design: method as in PMID 16096433; settings: rats; cited from earlier work
MMP-13 = test system: MMP-13; design: method as in PMID 23541335, PMID 16538215; settings: cited from earlier work
MMP-1 = test system: MMP-1; design: method as in PMID 23541335, PMID 16538215; settings: cited from earlier work
MMP-8 = test system: MMP-8; design: method as in PMID 23541335, PMID 16538215; settings: cited from earlier work
[12] = concentrations up to 10,000 ng/mL (20.94 μM)
[13] = higher concentrations (up to 100,000 ng/mL or 209.36 μM)

CNC(=O)[C@H](Cc1ccccc1)NC(=O)[C@H](CC(C)C)[C@H](CSc1cccs1)C(=O)NO [Batimastat]
toxicity to cells [1]: toxic | inhibition of cell growth [2]: inhibit the growth | inhibition of cell growth [3]: inhibit the growth | tumor growth (B16-BL6 melanoma): inhibit tumor growth | reduction in cell viability (human glioma U-251 cells): 20–40% | toxicity to cells [4, 12]: no toxicity | toxicity to cells [4, 13]: only mild toxicity | toxicity to cells [5, 12]: no toxicity | toxicity to cells [5, 13]: only mild toxicity | toxicity to cells [6]: toxic | effect on cell density [7]: no apparent effect

Nc1ccc(Oc2ccc(S(=O)(=O)CC3CS3)cc2)cc1 (stereo not shown) [ND-322]
tumor growth [8]: inhibited the growth

CC1(C)SCCN(S(=O)(=O)c2ccc(Oc3ccncc3)cc2)[C@H]1C(=O)NO [Prinomastat]
tumor growth [9]: inhibit the growth | concentrations toxic to cells [10]: above 100 μM | tumor growth (Lewis lung carcinoma): inhibit the growth

O=C1NC(=O)C(c2ccc(-c3ccccc3)cc2)(N2CCN(c3ccc([N+](=O)[O-])cc3)CC2)C(=O)N1 [RO 28-2653]
tumor growth [11]: inhibit the growth

O=C(C[C@H](CSc1ccccc1)C(=O)O)c1ccc(-c2ccc(Cl)cc2)cc1 [tanomastat]
inhibition of MMP-13 (MMP-13): does not inhibit | inhibition of MMP-1 (MMP-1): does not inhibit | inhibition of MMP-8 (MMP-8): does not inhibit
